Measured values from US8664201B2 (priority 2008, dated 2014).
Where “and” joins values, the source holds several entries; their conditions need not be identical. Identical values can stand only once. Like-named read-outs stand apart in the source and are kept apart here. Marks after values point to notes of the source that are not given here.

What was measured:
[1] = tested on: L1210/CPA; type: in vivo, mice
[2] = tested on: human MX-1 mammary tumors; type: in vivo, mice
[3] = tested on: Lewis Lung Carcinoma; design: species or system mice; settings: mouse, in vivo
[4] = tested on: P388/0; type: in vivo, mice
[5] = tested on: B16 Melanoma; design: species or system mice; settings: mouse, in vivo
[6] = tested on: 16/C Mammary Tumor; type: in vivo, mice
[7] = tested on: human lox-IMVI melanoma; type: in vivo, mice
[8] = tested on: P388/CPA; type: in vivo, mice
[9] = tested on: L1210/0; type: in vivo, mice
[10] = tested on: Lewis lung murine tumor; settings: mouse, in vivo, ip
[11] = Single dose intravenous toxicity of IPM in rats; type: in vivo
[12] = Acute toxicity, three daily IV bolus injections in mice (IPM lysine salt, IPM parent control); type: in vivo; settings: 150 mg/kg IV daily × 3
Method: This example describes the evaluation of the acute toxicity of isophosphoramide mustard lysine salt, following three days of daily intravenous (bolus) injection in mice. This study consisted of two phases.
The second main study phase consisted of eight treatment groups (five mice/sex/group) that received the test article as a single daily dose for three consecutive days at respective dose levels of 50, 75, 100, 200, 300, 400, 500, and 600 mg/kg. An additional group (5 mice/sex) served as a parent compound control and received the isophosphoramide mustard parent compound in the same manner, at a dose level of 150 mg/kg. The vehicle was 0.9% sodium chloride for injection, USP and all doses were at a constant volume of 15 mL/kg.
Observations for mortality, morbidity, and the availability of food and water were conducted twice daily for all animals. Observations for clinical signs were conducted daily during the study (approximately one and four hours postdose on Days 1, 2, and 3, and once daily on non-dosing days). Body weights for all surviving animals were measured and recorded the second day after receipt, prior to randomization, and on Days-1 and 7. Body weights also were measured on all surviving main study phase animals on Day 14. Macroscopic evaluations were performed on each main study animal at necropsy (Day 15).
Eight main study treatment groups received the test article as a single daily dose for three consecutive days via intravenous (bolus) injection at respective dose levels of 50, 75, 100, 200, 300, 400, 500, and 600 mg/kg. An additional group (five mice/sex) served as a parent compound control and received the Isophosphoramide Mustard Parent Compound in the same manner at a dose level of 150 mg/kg. All doses were at a volume of 15 mL/kg and based on the most recent body weight.

[13] = tested on: MX-1 Human Breast Tumor; settings: mouse, in vivo, ip
[14] = Sub-acute IV (3-day) toxicity of IPM in mice; type: in vivo; settings: for dose with kidney tubular necrosis / dose with severe bone marrow depletion / intravenous LD10 / intravenous LD50: IV daily × 3 days
Text: Multiple daily dose Administrations—IV and IP—have been studied in mice and dogs. Sub-acute intravenous (3-day) dosing in the mouse and dog has provided the toxicology/pharmacokinetic information regarding toxicities and drug disturbances that were utilized in designing the administration and dose schedules in humans.

[15] = tested on: M5076 Sarcoma; test: SC implanted M5076 sarcoma; type: in vivo, mice; settings: days 11-15
[16] = Single dose intravenous toxicity of IPM in mice; type: in vivo
[17] = Single dose oral toxicity of IPM in mice; type: in vivo
[18] = Estimated comparable human intravenous dosages
[19] = Single dose oral toxicity of IPM in rats; type: in vivo; settings: for oral LD50: single dose

SMILES: O=P1(N(CCCl)CCCl)NCCCO1 (stereo not shown) [Cyclophosphamide, cyclophosphamide]
- % ILS (dying mice only) ([1]; 200 mg/kg IP, day 2 only): +57%
- Day 60 survivors/total ([1]; 200 mg/kg IP, day 2 only): 0/10
- Net log10 reduction in tumor burden after therapy ([1]; 200 mg/kg IP, day 2 only): 4
- Days Delay (T-C) ([2]; 60 mg/kg IP, Q 1dx 5 day 12): >40.5 days
- Days to 2 Doublings ([2]; 60 mg/kg IP, Q 1dx 5 day 12): >48.0 days
- % ILS [3]: 68%
- Log kill total [3]: >6.8
- T-C (tumor growth delay) [3]: 27 days
- Tumor-free survivors [3]: 5/10
- % ILS (dying mice only) ([4]; 175 mg/kg IP, day 1 only): +130%
- Day 60 survivors/total ([4]; 175 mg/kg IP, day 1 only): 4/10
- Net log10 reduction in tumor burden after therapy ([4]; 175 mg/kg IP, day 1 only): 7
- % ILS (dying mice only) ([4]; 265 mg/kg IP, day 1 only): +280%
- Day 60 survivors/total ([4]; 265 mg/kg IP, day 1 only): 7/10
- Net log10 reduction in tumor burden after therapy ([4]; 265 mg/kg IP, day 1 only): 7
- % ILS [5]: 68%
- T-C [5]: 27 days
- Tumor-free survivors [5]: 5/10
- Days Delay (T-C) ([6]; 30 mg/kg IP, Q 1dx 4 day 7): 0.4 days
- Days to 2 Doublings ([6]; 30 mg/kg IP, Q 1dx 4 day 7): 3.6 days
- Days Delay (T-C) ([6]; 40 mg/kg IP, Q 1dx 4 day 7): 1.2 days
- Days to 2 Doublings ([6]; 40 mg/kg IP, Q 1dx 4 day 7): 4.4 days
- Days Delay (T-C) ([6]; 50 mg/kg IP, Q 1dx 4 day 7): 4.0 days
- Days to 2 Doublings ([6]; 50 mg/kg IP, Q 1dx 4 day 7): 7.2 days
- Days Delay (T-C) ([6]; 60 mg/kg IP, Q 1dx 4 day 7): 4.5 days
- Days to 2 Doublings ([6]; 60 mg/kg IP, Q 1dx 4 day 7): 7.7 days
- % ILS ([7]; 40 mg/kg/dose IV, Q1DX5): +121%
- Median Day of Death ([7]; 40 mg/kg/dose IV, Q1DX5): 42.0
- % ILS (dying mice only) ([8]; 175 mg/kg IP, day 1 only): +35%
- Day 60 survivors/total ([8]; 175 mg/kg IP, day 1 only): 0/10
- Net log10 reduction in tumor burden after therapy ([8]; 175 mg/kg IP, day 1 only): 3
- % ILS (dying mice only) ([8]; 265 mg/kg IP, day 1 only): +35%
- Day 60 survivors/total ([8]; 265 mg/kg IP, day 1 only): 0/10
- Net log10 reduction in tumor burden after therapy ([8]; 265 mg/kg IP, day 1 only): 3
- % ILS (dying mice only) ([9]; 200 mg/kg IP, day 2 only): +107%
- Day 60 survivors/total ([9]; 200 mg/kg IP, day 2 only): 0/10
- Net log10 reduction in tumor burden after therapy ([9]; 200 mg/kg IP, day 2 only): 7

SMILES: O=P(O)(NCCCl)NCCCl [IPM, isophosphoramide mustard]
- MTD Dosage [10]: 40.0 mg/kg/dose
- T-C [10]: 12.5* days
- % ILS (dying mice only) ([1]; mouse, in vivo): +114%
- Day 60 survivors/total ([1]; mouse, in vivo): 1/10
- Net log10 reduction in tumor burden after therapy ([1]; mouse, in vivo): 7
- Days to 2 Doublings ([2]; mouse, in vivo): 26.5 days and 14.2 days
- single dose intravenous LD50 ([11]; female rats): 400 mg/kg
- single dose intravenous LD50 ([11]; male rats): 567 mg/kg
- % ILS [3]: 34%
- Log kill total [3]: >2.1
- T-C (tumor growth delay) [3]: 8.4 days
- Tumor-free survivors [3]: 6/10
- Cumulative Mortality, female [12]: 4/5
- Cumulative Mortality, male [12]: 1/5
- Cumulative Mortality, total ([12]; listed as IPM parent compound): 5 of 10 and 5/10
- Day 60 survivors/total ([4]; mouse, in vivo): 0/9 and 1/10
- MTD Dosage [13]: 40.0 mg/kg/dose
- T-C [13]: 2.1* days
- treatment-related microscopic findings ([14]; 75 mg/kg, either sex): No obvious treatment-related microscopic findings
- Sub-acute IV LD10 ([14]; Mouse): 119 mg/kg/day
- dose with kidney tubular necrosis ([14]; female mice): ≥ 133 mg/kg
- dose with severe bone marrow depletion ([14]; female mice): ≥ 133 mg/kg
- intravenous LD10 ([14]; female mice): 125 mg/kg
- intravenous LD50 ([14]; female mice): 132 mg/kg
- dose with kidney tubular necrosis ([14]; male mice): ≥ 237 mg/kg
- dose with severe bone marrow depletion ([14]; male mice): ≥ 178 mg/kg
- intravenous LD10 ([14]; male mice): 168 mg/kg
- intravenous LD50 ([14]; male mice): 176 mg/kg
- intravenous LD10 ([14]; mice, combined sexes): 119 mg/kg
- % ILS [5]: 34%
- Inhibition of B16 melanoma growth compared with CPA and Ifos [5]: slightly inferior to CPA but better than Ifos
- T-C [5]: 8.4 days
- Tumor-free survivors [5]: 6/10
- Days Delay (T-C) ([15]; 18 mg/kg IP daily): 1 days
- Days To 2 doublings ([15]; 18 mg/kg IP daily): 10.3 days
- Days Delay (T-C) ([15]; 27 mg/kg IP daily): 3.3 days
- Days To 2 doublings ([15]; 27 mg/kg IP daily): 12.6 days
- Days Delay (T-C) ([15]; 40 mg/kg IP daily): 6.1 days
- Days To 2 doublings ([15]; 40 mg/kg IP daily): 15.4 days
- Days Delay (T-C) ([6]; mouse, in vivo): 6.3 days and 5.2 days and 4.2 days
- Days to 2 Doublings ([6]; mouse, in vivo): 9.5 days and 8.5 days and 7.4 days
- single dose intravenous LD50 ([16]; female mice): 484 mg/kg
- single dose intravenous LD50 ([16]; male mice): 929 mg/kg
- oral LD50 ([17]; female mice): 1962 mg/kg
- oral LD50 ([17]; male mice): 1014 mg/kg
- oral LD50 ([17]; mice, both sexes combined): 1432 mg/kg
- % ILS ([7]; mouse, in vivo): +52%
- Median Day of Death ([7]; mouse, in vivo): 29.0
- Sub-acute IV LD10 (Dog): 5 mg/kg/day
- survival (dog, in vivo): (100% survival)
- MTD (dog, in vivo, iv): 5 mg/kg/day
- Day 60 survivors/total ([8]; mouse, in vivo): 0/10
- Net log10 reduction in tumor burden after therapy ([8]; mouse, in vivo): 7
- % ILS (dying mice only) ([9]; mouse, in vivo): +128%
- Day 60 survivors/total ([9]; mouse, in vivo): 0/10
- Net log10 reduction in tumor burden after therapy ([9]; mouse, in vivo): 8
- Comparable Human IV Dosage ([18]; estimated from dog sub-acute IV value): 100 mg/m^2/d
- Comparable Human IV Dosage ([18]; estimated from mouse sub-acute IV LD10): 30 mg/m^2/d
- corresponding safe starting dose in humans ([18]; for three days, from dog MTD): 100 mg/m^2 per day
- oral LD50 ([19]; female rats): 2786 mg/kg
- oral LD50 ([19]; male rats): 4443 mg/kg
- oral LD50 range ([19]; oral, range over mice and rats): 1400 to 3500 mg/kg
- oral LD50 ([19]; rats, both sexes combined): 3560 mg/kg
